Read-outs that look alike come from different tables or passages of the source.
Key:
some species of bacteria = experiment: Antibacterial activity; type: cell-based; settings: for antibacterial activity: in words; for antibacterial activity compared with phenol: some species of bacteria
[1] = Stability of glycoside linkage against acid hydrolysis (Test 2); type: physicochemical; settings: for stability of glycoside linkage against hydrolysis by acid: in words, no conditions; for acid hydrolysis, TLC result: 61°-62° C.; for acid hydrolysis: 60° C.
Protocol: Daunomycin (1 mg) was dissolved in a mixture of (0.1 ml) of 0.2N*HCl-80% CH3 CN-H2 O (*the concentration of HCl being 0.2N in the whole mixture) and the solution was heated in oil bath at 61°-62° C. for 30 minutes to cause the hydrolysis. […] The reaction solution was allowed to stand at room temperature to deposit daunomycinone as red crystals.
FTDM (0.7 mg) was suspended in a mixture (0.1 ml) of 0.2N HCl-80% CH3 CN-H2 O and suspension was stirred in an oil bath at 61°-62° C. for 30 minutes.

Leukemia L-1210 cells = experiment: Antitumor activity on leukemia in CDF1 mice caused by Leukemia L-1210 cells (Test 1); settings: for sign of toxicity: 2.5-5 mg/kg/day, in words
Protocol: Antitumor activity on Leukemia in CDF1 mice caused by Leukemia L-1210 cells
In this test, Compounds of formula (m) were assessed in comparison with daunomycin and adriamycin on their tumor inhibitory activity against leukemia in mice Thus, CDF1 mice were intraperitoneally transplanted with cells of Leukemia L-1210 (1×10^5 cells/mouse). From 24 hours after i.p. transplantation of L-1210 cells, each compound to be tested was administered intraperitoneally for 9 consecutive days at once per day. Observation was made for 60 days where survival days of each mouse tested were recorded, and percentage increase in life-span of the treated mice, in comparison with control test wherein mice were treated only with the administration of physiological saline, was calculated as T/C %, where T is the mean survival days of the treated animals and C is the mean survival days of the untreated control animals.

experimental tumors [2] = experiment: Animal tests on experimental tumors; type: in vivo; settings: in words
[3] = system: Micrococcus luteus ATCC 9341; experiment: MIC by standard serial dilution method; type: cell-based; settings: ATCC9341; Micrococcus luteus ATCC 9341 (MS-1)
Description: (§1) Minimum inhibitory concentrations (MIC., mcg/ml) of the new compounds of formulae (h) and (i) against the growth of some species of bacteria have been determined according to a standard serial dilution method.

[4] = system: Salmonella paratyphi 1015; experiment: MIC by standard serial dilution method; type: cell-based; settings: Salmonella enterica
Description: as §1

[5] = in vivo; cited from earlier work
Leukemia P 388 = settings: cited from earlier work
Leukemia L-1210 = settings: 25 mg/kg, single dose per day, intraperitoneally for 9 days; cited from earlier work
experimental tumors [6] = settings: various kinds of tumors; cited from earlier work
[7] = patients; cited from earlier work
[8] = system: Corynebacterium bovis 1810; experiment: MIC by standard serial dilution method; type: cell-based
Description: as §1

[9] = 0.2N HCl-80% CH3 CN-H2 O, 30 minutes
[10] = 0.15 mg/kg/day, i.p., once per day for 9 days, 60 days observation
[11] = 0.3 mg/kg/day, i.p., once per day for 9 days, 60 days observation
[12] = 0.6 mg/kg/day, i.p., once per day for 9 days, 60 days observation
[13] = 1.25 mg/kg/day, i.p., once per day for 9 days, 60 days observation
[14] = 2.5 mg/kg/day, i.p., once per day for 9 days, 60 days observation
[15] = 5 mg/kg/day, i.p., once per day for 9 days, 60 days observation

COc1cccc2c1C(=O)c1c(O)c3c(c(O)c1C2=O)C[C@@](O)(C(=O)CO)C[C@@H]3O[C@@H]1O[C@@H](C)[C@@H](O)[C@@H](O)[C@H]1F [Compound of formula (l), 7-O-(2,6-dideoxy-2-fluoro-α-L-talopyranosyl)adriamycinone]
antibacterial activity (some species of bacteria): high antibacterial activities | stability of glycoside linkage against hydrolysis by acid [1]: high stability against hydrolysis by acid | sign of toxicity (Leukemia L-1210 cells): no sign of toxicity | % Increase in life-span (T/C) (Leukemia L-1210 cells; ip, 0.15 mg/kg): 127% | % Increase in life-span (T/C) (Leukemia L-1210 cells; ip, 0.3 mg/kg): 182% | % Increase in life-span (T/C) (Leukemia L-1210 cells; ip, 0.6 mg/kg): 185% | % Increase in life-span (T/C) (Leukemia L-1210 cells; ip, 1.25 mg/kg): 275% | % Increase in life-span (T/C) (Leukemia L-1210 cells; ip, 2.5 mg/kg): > 352% | % Increase in life-span (T/C) (Leukemia L-1210 cells; ip, 5 mg/kg): > 740% | antitumor activity (experimental tumors [2]): excellent antitumor activities | toxicity (experimental tumors [2]): low toxicities

COc1cccc2c1C(=O)c1c(O)c3c(c(O)c1C2=O)C[C@@](O)(C(C)=O)C[C@@H]3O[C@@H]1O[C@@H](C)[C@@H](O)[C@@H](O)[C@H]1F [Compound of formula (k), 7-O-(2,6-dideoxy-2-fluoro-α-L-talopyranosyl)daunomycinone]
antibacterial activity (some species of bacteria): high antibacterial activities | acid hydrolysis, TLC result [1, 9]: presence of the spot of FTDM only | acid hydrolysis, TLC result ([1]; 0.2N HCl-80% CH3 CN-H2 O, further 3 hours): the spot of FTDM only | acid hydrolysis ([1]; 1N HCl in acetonitrile-water (4:1), 8 hours): remains substantially as it is, without being decomposed | acid hydrolysis, TLC result ([1]; 1N HCl overall, 8 hours): a spot of a trace amount of daumonycinone appeared, but most of FTDM was remaining at it was | stability of glycoside linkage against hydrolysis by acid [1]: high stability against hydrolysis by acid | sign of toxicity (Leukemia L-1210 cells): no sign of toxicity | % Increase in life-span (T/C) (Leukemia L-1210 cells; ip, 0.15 mg/kg): 105% | % Increase in life-span (T/C) (Leukemia L-1210 cells; ip, 0.3 mg/kg): 105% | % Increase in life-span (T/C) (Leukemia L-1210 cells; ip, 0.6 mg/kg): 125% | % Increase in life-span (T/C) (Leukemia L-1210 cells; ip, 1.25 mg/kg): 171% | % Increase in life-span (T/C) (Leukemia L-1210 cells; ip, 2.5 mg/kg): 217% | % Increase in life-span (T/C) (Leukemia L-1210 cells; ip, 5 mg/kg): 184% | antitumor activity (experimental tumors [2]): excellent antitumor activities | toxicity (experimental tumors [2]): low toxicities

CO[C@@H]1O[C@@H](C)[C@@H](O)[C@@H](O)[C@H]1F [Compound of formula (h), methyl 2,6-dideoxy-2-fluoro-α-L-talopyranoside]
antibacterial activity compared with phenol (some species of bacteria): higher antibacterial activity against some species of bacteria than that of phenol | MIC [3]: 100 µg/mL | MIC [4]: 100 µg/mL

COc1cccc2c1C(=O)c1c(O)c3c(c(O)c1C2=O)C[C@@](O)(C(=O)CO)C[C@@H]3O [adriamycinone]
cardiac toxicity compared with daunomycin or adriamycin [5]: higher cardiac toxicity than the daunomycin or adriamycin itself

COc1cccc2c1C(=O)c1c(O)c3c(c(O)c1C2=O)C[C@@](O)(C(C)=O)C[C@@H]3O[C@@H]1O[C@@H](C)[C@@H](OC(C)=O)[C@@H](OC(C)=O)[C@H]1I [Compound NSC 327,472, 7-O-(3,4-di-O-acetyl-2,6-dideoxy-2-iodo-α-L-talohexopyranosyl)daunomycinone]
increase (%) of survival days (Leukemia P 388; 12.5 mg/kg to 25 mg/kg): 172% | increase (%) of survival days (Leukemia P 388; 150 mg/kg): 162%

COc1cccc2c1C(=O)c1c(O)c3c(c(O)c1C2=O)C[C@@](O)(C(C)=O)C[C@@H]3O[C@@H]1O[C@@H](C)[C@H](OC(C)=O)[C@@H](OC(C)=O)[C@H]1I [Compound NSC 331,962, 7-O-(3,4-di-O-acetyl-2,6-dideoxy-2-iodo-α-L-manno-hexopyranosyl)daunomycinone]
increase (in %) of survival days (T/C, %) (Leukemia L-1210): 196% | increase (in %) of survival days (T/C, %) (Leukemia P 388; 50 mg/kg): 247%

COc1cccc2c1C(=O)c1c(O)c3c(c(O)c1C2=O)C[C@@](O)(C(C)=O)C[C@@H]3O[C@H]1C[C@H](N)[C@H](O)[C@H](C)O1 [Daunomycin, reference compound]
acid hydrolysis ([1]; 0.2N HCl in acetonitrile-water (4:1), 30 minutes): completely decomposed | acid hydrolysis, TLC result [1, 9]: disappearance of the spot of daunomycin | % Increase in life-span (T/C) (Leukemia L-1210 cells; [10]): 132% | % Increase in life-span (T/C) (Leukemia L-1210 cells; [11]): 112% | % Increase in life-span (T/C) (Leukemia L-1210 cells; [12]): 145% | % Increase in life-span (T/C) (Leukemia L-1210 cells; [13]): 158% | % Increase in life-span (T/C) (Leukemia L-1210 cells; [14]): 171% | % Increase in life-span (T/C) (Leukemia L-1210 cells; [15]): 138% | antitumor activity (experimental tumors [6]): fairly high antitumor activity against various kinds of tumors

COc1cccc2c1C(=O)c1c(O)c3c(c(O)c1C2=O)C[C@@](O)(C(=O)CO)C[C@@H]3O[C@H]1C[C@H](N)[C@H](O)[C@H](C)O1 [Adriamycin, reference compound]
% Increase in life-span (T/C) (Leukemia L-1210 cells; [10]): 123% | % Increase in life-span (T/C) (Leukemia L-1210 cells; [11]): 136% | % Increase in life-span (T/C) (Leukemia L-1210 cells; [12]): 142% | % Increase in life-span (T/C) (Leukemia L-1210 cells; [13]): 222% | % Increase in life-span (T/C) (Leukemia L-1210 cells; [14]): 228% | % Increase in life-span (T/C) (Leukemia L-1210 cells; [15]): 191% | sign of toxicity (Leukemia L-1210 cells): appearance of toxicity | antitumor activity (experimental tumors [6]): fairly high antitumor activity against various kinds of tumors | cardiac toxicity [7]: cardiac toxicity | decrease in the number of leukocytes [7]: decrease in the number of leukocytes | falling-off of the hair [7]: falling-off of the hair

C[C@@H]1OC(O)[C@H](F)[C@H](O)[C@@H]1O (stereo partly drawn) [Compound of formula (i), 2,6-dideoxy-2-fluoro-α,β-L-talopyranose]
antibacterial activity (some species of bacteria): shows antibacterial activity | antibacterial activity compared with phenol (some species of bacteria): higher antibacterial activity against some species of bacteria than that of phenol | MIC [4]: 100 µg/mL | MIC [8]: 100 µg/mL

COc1cccc2c1C(=O)c1c(O)c3c(c(O)c1C2=O)C[C@@](O)(C(C)=O)C[C@@H]3O [daunomycinone]
cardiac toxicity compared with daunomycin or adriamycin [5]: higher cardiac toxicity than the daunomycin or adriamycin itself

— patent US5034517A, “Process for producing 2,6-dideoxy-2-fluoro-L-talopyranose” (priority 1986, dated 1991)
